Patent publication US5914328A, “Heterocyclic ether compounds useful in controlling neurotransmitter release” (Abbott Laboratories, priority 1995, dated 1999)
pKi: −log10 of the molar value. Counter-ions that a name gives are not always drawn. Like-named read-outs stand apart in the source and are kept apart here.

What was measured:
[1] = tested on: nAChR evoked release of [3H]-dopamine; test: Striatal dopamine release ([3H]-dopamine, superfused rat striatal slices); format: cell-based; details: standard 100 nM (-)-nicotine = 1.0
Experimental: The protocol for this procedure follows below.
A. Protocol for Determination of Striatal Dopamine Release.
nAChR evoked release of [ring-2,5,6-^3 H]-dopamine (24.4 Ci/mmol) was measured in superfused rat striatal slices. Striata were dissected from two male Sprague-Dawley rats per experiment and sliced 0.35×0.25 mm by a McIlwain Tissue Chopper (Brinkman Instrument Co., Westbury, N.Y.). After two washes with Krebs-HEPES buffer (137 mM NaCl, 4.7 mM KCl, 1 mM MgSO4, 2.5 mM CaCl2, 1.25 mM NaH2 PO4, 10 mM glucose, 15 mM HEPES-NaOH, pH 7.4, containing 10 μM pargyline and 10 μM ascorbic acid), slices were preincubated for 10 minutes at […] under 95%/5% O2 /CO2. After replacing the buffer, slices were labeled with […] [^3 H]-dopamine for 25 min in Krebs-HEPES at […] Aliquots of slices were placed in 18 superfusion chambers of a Brandel SP2000 superfusion apparatus (Brandel, Gaithersberg, Md.). Following 47 minutes of washout, slices were exposed to agonist at various concentrations for4 minutes. Antagonists or inhibitors, when present were introduced 4 minutes prior to and during agonist exposure. Collected fractions were counted in 5 mL of Ecolume. Tissue was recovered from superfusion chambers, solubilized with 1 mL of Solvable™ (DuPont-NEN) and counted in 15 mL of Ecolume. Fractional release of [^3 H]-dopamine was calculated from radioactivity above baseline as a fraction of total radioactivity.

[2] = target: neuronal nicotinic cholinergic channel receptor; test: Binding of [3H]-cytisine to neuronal nicotinic receptors, whole rat brain synaptic membranes
Experimental: B. Protocol For Determination of Nicotinic Cholinergic Channel Receptor Binding Potencies of Ligands
Binding of [^3 H]-cytisine ([^3 H]-CYT) to nicotinic receptors was accomplished using crude synaptic membrane preparations from whole rat brain (Pabreza et al., Molecular Pharmacol., 1990, 39:9). Washed membranes were stored at -80° C. prior to use. Frozen aliquots were slowly thawed and resuspended in 20 volumes of buffer (containing: 120 mM NaCl, 5 mM KCl, 2 mM MgCl2, 2 mM CaCl2 and 50 mM Tris-Cl, pH 7.4 @4° C.). After centrifuging at 20,000×g for 15 minutes, the pellets were resuspended in 30 volumes of buffer. Homogenate (containing […]) was added to triplicate tubes containing concentrations of test compound and [^3 H]-CYT (1.25 nM) in a final volume of 500 μL. Samples were incubated for 60 minutes at 4° C., then rapidly filtered through Whatman GF/B filters presoaked in 0.5% polyethylimine using 3×4 mL of ice-cold buffer. The filters are counted in 4 mL of Ecolume® (ICN). […] Alternately, data were expressed as a percentage of the total specific binding.

[3] = tested on: cholinergic ligand-gated channels; test: Cholinergic channel activation in PC12 cells, whole-cell patch-clamp; format: cell-based; details: whole-cell patch-clamp current
Text: D. Protocols for the Determination of Cholinergic Channel Activation in PC12 Cells.
The cholinergic channel activator properties of Example 9 were investigated in PC12 cells using the whole-cell patch-clamp approach to measure current flow through ligand-gated membrane channels.

[4] = example concentration 10 μM (*)
[5] = read-out: Receptor Binding Ki (Table 2)
[6] = read-out: Receptor Binding Ki (Table 1)
[7] = example concentration 1 μM (**)
[8] = example concentration 0.1 μ (***)

SMILES: CN1CCC[C@@H]1COc1cccnc1.Cl [Example 1, 3-((1-methyl-2-(R)-pyrrolidinyl)methoxy)pyridine hydrochloride]
- Dopamine Release relative to Nicotine [1, 4]: 0.08

SMILES: CN1CCC[C@H]1COc1cccnc1.O=C(O)/C=C/C(=O)O [Example 4, 3-((1-methyl-2-(S)-pyrrolidinyl)methoxy)pyridine fumarate]
- Dopamine Release relative to Nicotine [1, 4]: 1.0

SMILES: CC(Oc1cccnc1)[C@@H]1CCCN1C (stereo partly drawn) [Example 6, 3-(a-methyl-(1-methyl-2-(S)-pyrrolidinyl)methoxy)pyridine hydrochloride]
- pKi [2, 5]: 8.17

SMILES: c1cnc(OC[C@@H]2CCN2)cn1 [Example 7]
- pKi ([2]; [3H]-cytisine 1.25 nM, rat brain membranes, 4° C., Table 2, read-out: Receptor Binding Ki (Table 2)): 9.36

SMILES: CN1CC[C@H]1COc1cnccn1.Cl.Cl [Example 8, 2-((1-methyl-2-(S)-azetidinyl)methoxy)pyrazine dihydrochloride]
- Dopamine Release relative to Nicotine [1, 4]: 0.55

SMILES: Cl.Cl.c1cncc(OC[C@@H]2CCN2)c1 [Example 9, 3-(2-(S)-azetidinylmethoxy)pyridine dihydrochloride]
- Dopamine Release relative to Nicotine [1, 4]: 1.0
- cholinergic channel activator properties (in words) [3]: clear agonist activity

SMILES: CN1CC[C@H]1COc1cccnc1 [Example 10, 3-((1-methyl-2-(S)-azetidinyl)methoxypyridinedihydrochloride]
- Dopamine Release relative to Nicotine [1, 4]: 1.0
- pKi [2, 6]: 9.60

SMILES: c1cncc(OC[C@@H]2CCCN2)c1 [Example 14, 3-(2-(S)-pyrrolidinylmethoxypyridine fumarate]
- Dopamine Release relative to Nicotine [1, 7]: 1.0
- pKi [2, 6]: 9.85

SMILES: CN1CCC[C@H]1COc1cncc(Cl)c1 [Example 16, 5chloro-3-((1-methyl-2-(S)-pyrrolidinyl)methoxypyridinedihydrochloride]
- Dopamine Release relative to Nicotine [1, 7]: 1.0

SMILES: Cc1ccc(OC[C@@H]2CCCN2)cn1.Cl.Cl [Example 18, 6-methyl-3-(2-(S)-pyrrolidinylmethoxy)pyridine dihydrochloride]
- Dopamine Release relative to Nicotine [1, 8]: 1.0

SMILES: Cc1ccc(OC[C@@H]2CCCN2C)cn1.Cl.Cl [Example 19, 6methyl-3-((1-methyl-2-(S)-pyrrolidinyl)methoxy)pyridine dihydrochloride]
- Dopamine Release relative to Nicotine [1, 8]: 0.78
- pKi [2, 6]: 8.83

SMILES: C[C@@H]1C[C@@H](COc2cccnc2)N(C)C1 [Example 24, 3-((trans-1,4dimethyl-2(S)-pyrrolidinone)methoxy)pyridine dihydrochloride]
- pKi [2, 5]: 8.38

SMILES: CN1CCCCC1COc1cccnc1 (stereo not shown) [Example 26, 3-((1-methyl-2-piperidinyl)methoxy)pyridine oxalate salt]
- pKi [2, 5]: 7.12

SMILES: Cc1ncccc1OC[C@@H]1CCN1 [Example 29, 2-methyl-3-(2-(S)-azetidinylmethoxy)pyridine dihydrochloride]
- pKi [2, 5]: 8.89

SMILES: CN1CCC[C@H]1COc1cnc2ccccc2c1.Cl [Example 31, 3-(1-methyl-2-(S)-pyrrolidinylmethoxy)quinoline hydrochloride]
- Dopamine Release relative to Nicotine [1, 4]: 0.15

SMILES: Cl.Cl.Clc1cncc(OC[C@H]2CCCN2)c1 [Example 33, 5-chloro-3-(2-(R)-pyrrolidinylmethoxy)pyridine dihydrochloride]
- Dopamine Release relative to Nicotine [1, 7]: 0.62

SMILES: Cc1ccc(OC[C@H]2CCCN2C)cn1 [Example 36, 6-methyl-3-((1-methyl-2-(R)-pyrrolidinyl)methoxy)pyridine dihydrochloride]
- pKi [2, 5]: 7.59

SMILES: Cc1ccc(OCC2CCCN2)cn1 (stereo not shown) [Example 37, 6methyl-3-(2-(R-pyrrolidinylmethoxy)pyridinedihydrochloride]
- Dopamine Release relative to Nicotine [1, 4]: 0.8
- pKi [2, 6]: 9.30

SMILES: CCN1CCC[C@H]1COc1cccnc1.Cl.Cl [Example 38, 3-((1-ethyl-2(S)-pyrrolidinyl)methoxy)pyridine dihydrochloride]
- Dopamine Release relative to Nicotine [1, 4]: 0.6

SMILES: Cc1ccncc1OC[C@@H]1CCCN1C.Cl.Cl [Example 46, 4-methyl-3-((1-methyl-2-(S)-pyrrolidinyl)methoxy)pyridine dihydrochloride]
- Dopamine Release relative to Nicotine [1, 4]: 0.85

SMILES: Clc1ccc(OC[C@@H]2CCN2)cn1 [Example 52, 3-(2-(S)-azetidinylmethoxy)-6-chloropyridine dihydrochloride]
- Dopamine Release relative to Nicotine [1, 4]: 1.0

SMILES: Cc1ccc(OC[C@@H]2CCN2C)cn1.Cl.Cl [Example 59, 3-((1-methyl-2-(S)-azetidinyl)methoxy)-6-methylpyridine dihydrochloride]
- Dopamine Release relative to Nicotine [1, 4]: 0.7

SMILES: CN1CCC[C@H]1CCOc1cccnc1.Cl.Cl [Example 103, 3-(2-(1-methyl-2-(S)-pyrrolidinyl)ethoxy)pyridine dihydrochloride]
- Dopamine Release relative to Nicotine [1, 4]: 0.3
